Tested on: patients with negative symptoms of schizophrenia
Assay: Integrated analysis of Studies #1 and #2 (pooled ITT): PANSS-derived scores (NSFS, total, positive and negative subscales), DB, OL and whole study
Type: in vivo, human
Parameters: key to NSFS Score change from Baseline, Median: change from Baseline in PANSS NSFS points; higher score = more severe
Settings: for NSFS Score change from Baseline, LS mean (SE) / NSFS Score change from Baseline, Mean (SD) / NSFS Score change from Baseline, Median / NSFS Score, Difference (95% CI) in LS mean (vs placebo) / PANSS Negative Subscale Score change from Baseline, LS mean (SE) / PANSS Negative Subscale Score change from Baseline, Mean (SD) / PANSS Negative Subscale Score change from Baseline, Median / PANSS Negative Subscale Score, Difference (95% CI) in LS mean (vs placebo) / PANSS Total Score change from Baseline, LS mean (SE) / PANSS Total Score change from Baseline, Mean (SD) / PANSS Total Score change from Baseline, Median / PANSS Total Score, Difference (95% CI) in LS mean (vs placebo): DB
Procedure: The primary integrated analysis of the efficacy of Roluperidone compared with placebo for the treatment of negative symptoms of schizophrenia is based on the change from Baseline in the PANSS Marder's negative symptoms factor score (in this document referred to as NSFS) to Week 12. Efficacy is also supported by the analysis of change from Baseline in the PSP Total score and the CGI-S to Week 12.
The PANSS was assessed at the time points described in Table 4.
The PANSS-derived endpoints used in these studies and the integrated analyses are described in Table 5A and a summary of the individual PANSS items used by physicians and clinicians to measure the severity of the symptoms in a schizophrenia patient is provided in Table 5B. The scale is divided into three parts, a positive scale, which provides a “PANSS positive subscore”, a negative scale, which provides a “PANSS negative subscore”, and general psychopathology scale. The sum of these three parts provides a PANSS total score, which ranges from 30 to 210 (where higher scores indicate more severe symptoms). (See Kay, S. R., et al. “The positive and negative syndrome scale (PANSS) for schizophrenia,” Schizophr Bulletin, 13(2), 261-276 (1987) and Gopal, S., et al. “Improvement of Negative Symptoms in Schizophrenia with Paliperidone Palmitate 1-Month and 3-Month Long-Acting Injectables: Results from a Phase 3 Non-Inferiority Study” Neuropsychiatric Disease and Treatment, 681-690, DOI: 10.2147/NDT.5226296, both of which are incorporated by reference.)
The Efficacy data from Study Nos. 1 and 2 were pooled. The majority of patients in the pooled ITT population completed the DB period (502 patients overall, 66.3%), with similar rates in each treatment group (placebo: 69.8%, 32 mg Roluperidone: 65.3%, and 64 mg Roluperidone: 63.8%) (Table 12). The majority (62.7%) of those who completed the DB period entered the OL period. The most common reason for discontinuation during the DB period among patients overall was withdrawal of consent (15.6%), followed by adverse events (7.3%) and lack of efficacy (5.4%) (Table 12). […] Approximately twice as many patients in the Roluperidone groups (32 mg: 8.5%; 64 mg: 9.1%) discontinued due to adverse events compared with patients in the placebo group (4.3%). More patients in the placebo group discontinued due to lack of efficacy (6.7%) than in the Roluperidone groups (32 mg: 4.4%; 64 mg: 5.1%). The low number of patients who discontinued due to lack of efficacy or withdrawal of consent probably reflects a low level of worsening of positive symptoms.
The integrated analysis supporting the efficacy of Roluperidone as a treatment for the negative symptoms of schizophrenia in adults is presented below.

1H-Isoindol-1-one,2-[ [1-[2-(4-fluorophenyl)-2-oxoethyl]-4-piperidinyl]methyl]-2,3-dihydro-, hydrochloride, hydrate (1:1:2) [Roluperidone]
Mean NSFS score improvements, persistence in OL period (32 mg and 64 mg groups, OL period incl. 2 weeks after end of treatment, pooled): sustained and continued during the OL period
NSFS Score change from Baseline, LS mean (SE) (32 mg, Week 2, pooled ITT): −1.1 (0.15)
NSFS Score change from Baseline, Mean (SD) (32 mg, Week 2, pooled ITT): −1.1 (2.15)
NSFS Score change from Baseline, Median (32 mg, Week 2, pooled ITT): −1.0
NSFS Score, Difference (95% CI) in LS mean (vs placebo) (32 mg, Week 2, pooled ITT): −0.2
PANSS Negative Subscale Score change from Baseline, LS mean (SE) (32 mg, Week 2, pooled ITT): −1.2 (0.14)
PANSS Negative Subscale Score change from Baseline, Mean (SD) (32 mg, Week 2, pooled ITT): −1.2 (2.11)
PANSS Negative Subscale Score change from Baseline, Median (32 mg, Week 2, pooled ITT): −1.0
PANSS Negative Subscale Score, Difference (95% CI) in LS mean (vs placebo) (32 mg, Week 2, pooled ITT): −0.1
PANSS Total Score change from Baseline, LS mean (SE) (32 mg, Week 2, pooled ITT): −1.7 (0.44)
PANSS Total Score change from Baseline, Mean (SD) (32 mg, Week 2, pooled ITT): −1.8 (6.62)
PANSS Total Score change from Baseline, Median (32 mg, Week 2, pooled ITT): −2.0
PANSS Total Score, Difference (95% CI) in LS mean (vs placebo) (32 mg, Week 2, pooled ITT): −0.4
PANSS Positive Subscale Score change from Baseline, LS mean (SE) (32 mg, Week 2, pooled ITT): 0.3 (0.17)
PANSS Positive Subscale Score change from Baseline, Mean (SD) (32 mg, Week 2, pooled ITT): 0.2 (2.71)
PANSS Positive Subscale Score change from Baseline, Median (32 mg, Week 2, pooled ITT): 0.0
PANSS Positive Subscale Score, Difference (95% CI) in LS mean (vs placebo) (32 mg, Week 2, pooled ITT): 0.3
NSFS Score change from Baseline, LS mean (SE) (32 mg, Week 4, pooled ITT): −2.0 (0.19)
NSFS Score change from Baseline, Mean (SD) (32 mg, Week 4, pooled ITT): −2.2 (2.53)
NSFS Score change from Baseline, Median (32 mg, Week 4, pooled ITT): −2.0
NSFS Score, Difference (95% CI) in LS mean (vs placebo) (32 mg, Week 4, pooled ITT): −0.7
PANSS Negative Subscale Score change from Baseline, LS mean (SE) (32 mg, Week 4, pooled ITT): −2.1 (0.19)
PANSS Negative Subscale Score change from Baseline, Mean (SD) (32 mg, Week 4, pooled ITT): −2.3 (2.67)
PANSS Negative Subscale Score change from Baseline, Median (32 mg, Week 4, pooled ITT): −2.0
PANSS Negative Subscale Score, Difference (95% CI) in LS mean (vs placebo) (32 mg, Week 4, pooled ITT): −0.6
PANSS Total Score change from Baseline, LS mean (SE) (32 mg, Week 4, pooled ITT): −3.6 (0.53)
PANSS Total Score change from Baseline, Mean (SD) (32 mg, Week 4, pooled ITT): −4.4 (7.09)
PANSS Total Score change from Baseline, Median (32 mg, Week 4, pooled ITT): −4.0
PANSS Total Score, Difference (95% CI) in LS mean (vs placebo) (32 mg, Week 4, pooled ITT): −1.6
PANSS Positive Subscale Score change from Baseline, LS mean (SE) (32 mg, Week 4, pooled ITT): −0.1 (0.18)
PANSS Positive Subscale Score change from Baseline, Mean (SD) (32 mg, Week 4, pooled ITT): −0.4 (2.49)
PANSS Positive Subscale Score change from Baseline, Median (32 mg, Week 4, pooled ITT): 0.0
PANSS Positive Subscale Score, Difference (95% CI) in LS mean (vs placebo) (32 mg, Week 4, pooled ITT): −0.3
NSFS Score change from Baseline, LS mean (SE) (32 mg, Week 8, pooled ITT): −3.0 (0.23)
NSFS Score change from Baseline, Mean (SD) (32 mg, Week 8, pooled ITT): −3.2 (3.21)
NSFS Score change from Baseline, Median (32 mg, Week 8, pooled ITT): −3.0
NSFS Score, Difference (95% CI) in LS mean (vs placebo) (32 mg, Week 8, pooled ITT): −0.8
PANSS Negative Subscale Score change from Baseline, LS mean (SE) (32 mg, Week 8, pooled ITT): −3.1 (0.24)
PANSS Negative Subscale Score change from Baseline, Mean (SD) (32 mg, Week 8, pooled ITT): −3.2 (3.46)
PANSS Negative Subscale Score change from Baseline, Median (32 mg, Week 8, pooled ITT): −3.0
PANSS Negative Subscale Score, Difference (95% CI) in LS mean (vs placebo) (32 mg, Week 8, pooled ITT): −0.7
PANSS Total Score change from Baseline, LS mean (SE) (32 mg, Week 8, pooled ITT): −4.9 (0.66)
PANSS Total Score change from Baseline, Mean (SD) (32 mg, Week 8, pooled ITT): −6.2 (7.89)
PANSS Total Score change from Baseline, Median (32 mg, Week 8, pooled ITT): −6.0
PANSS Total Score, Difference (95% CI) in LS mean (vs placebo) (32 mg, Week 8, pooled ITT): −1.7
PANSS Positive Subscale Score change from Baseline, LS mean (SE) (32 mg, Week 8, pooled ITT): −0.1 (0.20)
PANSS Positive Subscale Score change from Baseline, Mean (SD) (32 mg, Week 8, pooled ITT): −0.4 (2.50)
PANSS Positive Subscale Score change from Baseline, Median (32 mg, Week 8, pooled ITT): 0.0
PANSS Positive Subscale Score, Difference (95% CI) in LS mean (vs placebo) (32 mg, Week 8, pooled ITT): −0.3
NSFS Score change from Baseline, LS mean (SE) (32 mg, Week 12, pooled ITT): −3.5 (0.26)
NSFS Score change from Baseline, Mean (SD) (32 mg, Week 12, pooled ITT): −3.6 (3.08)
NSFS Score change from Baseline, Median (32 mg, Week 12, pooled ITT): −4.0
NSFS Score, Difference (95% CI) in LS mean (vs placebo) (32 mg, Week 12, pooled ITT): −0.8
PANSS Negative Subscale Score change from Baseline, LS mean (SE) (32 mg, Week 12, pooled ITT): −3.6 (0.27)
PANSS Negative Subscale Score change from Baseline, Mean (SD) (32 mg, Week 12, pooled ITT): −3.6 (3.37)
PANSS Negative Subscale Score change from Baseline, Median (32 mg, Week 12, pooled ITT): −3.0
PANSS Negative Subscale Score, Difference (95% CI) in LS mean (vs placebo) (32 mg, Week 12, pooled ITT): −0.7
PANSS Total Score change from Baseline, LS mean (SE) (32 mg, Week 12, pooled ITT): −5.5 (0.71)
PANSS Total Score change from Baseline, Mean (SD) (32 mg, Week 12, pooled ITT): −6.9 (7.77)
PANSS Total Score change from Baseline, Median (32 mg, Week 12, pooled ITT): −7.0
PANSS Total Score, Difference (95% CI) in LS mean (vs placebo) (32 mg, Week 12, pooled ITT): −1.9
NSFS Emotional Experience Score, Change from Baseline (LS Means [SEM]) (32 mg, Week 12, ITT): −1.3 (0.13)
NSFS Emotional Expression Score, Change from Baseline (LS Means [SEM]) (32 mg, Week 12, ITT): −2.2 (0.16)
NSFS, Change from Baseline (LS Means [SEM]) (32 mg, Week 12, ITT): −3.5 (0.26)
PANSS General Psychopathology Subscale, Change from Baseline (LS Means [SEM]) (32 mg, Week 12, ITT): −2.0 (0.37)
PANSS Negative Symptoms Subscale, Change from Baseline (LS Means [SEM]) (32 mg, Week 12, ITT): −3.6 (0.27)
PANSS Positive Symptoms Subscale, Change from Baseline (LS Means [SEM]) (32 mg, Week 12, ITT): −0.1 (0.21)
PANSS Total Score, Change from Baseline (LS Means [SEM]) (32 mg, Week 12, ITT): −5.5 (0.71)
Patients with high improvement in NSFS (magnitude of change >8) (32 mg, Week 12, pooled): 5%
Patients with moderate improvement in NSFS (magnitude of change 6-8) (32 mg, Week 12, pooled): 18%
Patients with moderate or high improvement in NSFS, total (32 mg, Week 12, pooled): 23%
NSFS, LS mean decrease from Baseline compared with placebo (32 mg, Week 12, pooled ITT): −3.5
PANSS Positive Subscale Score change from Baseline, LS mean (SE) (32 mg, Week 12, pooled ITT): −0.1 (0.21)
PANSS Positive Subscale Score change from Baseline, Mean (SD) (32 mg, Week 12, pooled ITT): −0.6(2.37)
PANSS Positive Subscale Score change from Baseline, Median (32 mg, Week 12, pooled ITT): 0.0
PANSS Positive Subscale Score, Difference (95% CI) in LS mean (vs placebo) (32 mg, Week 12, pooled ITT): −0.3
PANSS negative subscale score, LS mean change from Baseline compared with placebo (32 mg, Week 12, pooled ITT): −0.7
